Results on six molecules are retold here after ChEMBL document CHEMBL5465560, “Selectivity Literature for EUbOPEN Chemogenomic Library” (2024).

For experiment [1], the target named is T1, cGMP-dependent protein kinase 1 (Homo sapiens) (UniProt Q13976).
T1 sequence (whole entry): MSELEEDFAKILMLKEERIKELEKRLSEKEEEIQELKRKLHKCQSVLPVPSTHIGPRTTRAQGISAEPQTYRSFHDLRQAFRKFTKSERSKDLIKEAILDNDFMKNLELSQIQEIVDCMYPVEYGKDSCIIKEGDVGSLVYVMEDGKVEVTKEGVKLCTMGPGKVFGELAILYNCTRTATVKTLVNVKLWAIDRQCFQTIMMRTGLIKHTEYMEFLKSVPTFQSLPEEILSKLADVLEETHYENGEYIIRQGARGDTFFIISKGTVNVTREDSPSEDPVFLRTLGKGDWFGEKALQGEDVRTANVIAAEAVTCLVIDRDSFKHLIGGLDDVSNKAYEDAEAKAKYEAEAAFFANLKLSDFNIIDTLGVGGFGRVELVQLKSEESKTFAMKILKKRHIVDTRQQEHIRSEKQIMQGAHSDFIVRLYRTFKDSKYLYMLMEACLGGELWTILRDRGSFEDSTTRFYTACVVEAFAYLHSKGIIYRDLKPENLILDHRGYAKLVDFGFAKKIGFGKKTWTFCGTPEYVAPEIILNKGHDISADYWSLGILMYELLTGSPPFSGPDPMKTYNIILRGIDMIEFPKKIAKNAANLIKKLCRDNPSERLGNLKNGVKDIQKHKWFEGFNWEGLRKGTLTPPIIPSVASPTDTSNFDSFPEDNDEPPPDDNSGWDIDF
Briefly: Selectivity interaction (KinomeScan (DiscoverX)) EUB0001079a PRKG1. To be noted: at 1 µM.

For experiment [2], the target named is T2, Phosphatidylinositol 5-phosphate 4-kinase type-2 gamma (Homo sapiens) (UniProt Q8TBX8).
T2 sequence (whole entry): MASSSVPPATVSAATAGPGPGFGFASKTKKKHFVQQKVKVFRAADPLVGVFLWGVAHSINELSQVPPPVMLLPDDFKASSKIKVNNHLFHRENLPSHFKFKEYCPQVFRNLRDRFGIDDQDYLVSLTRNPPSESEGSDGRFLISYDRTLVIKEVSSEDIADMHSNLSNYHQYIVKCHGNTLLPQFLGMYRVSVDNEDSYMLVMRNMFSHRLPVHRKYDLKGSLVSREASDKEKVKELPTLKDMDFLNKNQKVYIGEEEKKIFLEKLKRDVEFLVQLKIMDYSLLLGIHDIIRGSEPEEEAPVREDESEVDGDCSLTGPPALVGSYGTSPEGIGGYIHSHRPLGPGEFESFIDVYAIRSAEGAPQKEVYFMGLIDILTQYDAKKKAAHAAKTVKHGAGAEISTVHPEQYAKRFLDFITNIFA
Briefly: Selectivity interaction (KinomeScan (DiscoverX)) EUB0001550a PIP4K2C. To be noted: at 1 µM.

The target in experiment [3] is Serine/threonine-protein kinase/endoribonuclease IRE1 (Homo sapiens) (UniProt O75460). Put plainly: Selectivity interaction (KinomeScan (DiscoverX)) EUB0000607a ERN1. Conditions: at 10 µM.
Experiment [4] has as its target Cyclin-dependent kinase 9 (Homo sapiens, UniProt P50750). Put plainly: Selectivity interaction (ActivX KiNativ screen (kinase selectivity in THP-1 cell lysates)) EUB0000639a CDK9. It is filed as subcellular. Conditions: lysate.
Experiment [5] deals with Calcium/calmodulin-dependent protein kinase type 1 (Homo sapiens) (UniProt Q14012). Briefly: Selectivity interaction (KinomeScan (DiscoverX)) EUB0000595a CAMK1. Conditions: at 10 µM.
For experiment [6], the target named is Ribosomal protein S6 kinase alpha-2 (Homo sapiens) (UniProt Q15349). Briefly: Selectivity interaction (KinomeScan (DiscoverX)) EUB0000595a RPS6KA2. Conditions: at 10 µM.
Experiment [7] has as its target T3, Mitogen-activated protein kinase kinase kinase kinase 2 (Homo sapiens) (UniProt Q12851).
T3 sequence (whole entry): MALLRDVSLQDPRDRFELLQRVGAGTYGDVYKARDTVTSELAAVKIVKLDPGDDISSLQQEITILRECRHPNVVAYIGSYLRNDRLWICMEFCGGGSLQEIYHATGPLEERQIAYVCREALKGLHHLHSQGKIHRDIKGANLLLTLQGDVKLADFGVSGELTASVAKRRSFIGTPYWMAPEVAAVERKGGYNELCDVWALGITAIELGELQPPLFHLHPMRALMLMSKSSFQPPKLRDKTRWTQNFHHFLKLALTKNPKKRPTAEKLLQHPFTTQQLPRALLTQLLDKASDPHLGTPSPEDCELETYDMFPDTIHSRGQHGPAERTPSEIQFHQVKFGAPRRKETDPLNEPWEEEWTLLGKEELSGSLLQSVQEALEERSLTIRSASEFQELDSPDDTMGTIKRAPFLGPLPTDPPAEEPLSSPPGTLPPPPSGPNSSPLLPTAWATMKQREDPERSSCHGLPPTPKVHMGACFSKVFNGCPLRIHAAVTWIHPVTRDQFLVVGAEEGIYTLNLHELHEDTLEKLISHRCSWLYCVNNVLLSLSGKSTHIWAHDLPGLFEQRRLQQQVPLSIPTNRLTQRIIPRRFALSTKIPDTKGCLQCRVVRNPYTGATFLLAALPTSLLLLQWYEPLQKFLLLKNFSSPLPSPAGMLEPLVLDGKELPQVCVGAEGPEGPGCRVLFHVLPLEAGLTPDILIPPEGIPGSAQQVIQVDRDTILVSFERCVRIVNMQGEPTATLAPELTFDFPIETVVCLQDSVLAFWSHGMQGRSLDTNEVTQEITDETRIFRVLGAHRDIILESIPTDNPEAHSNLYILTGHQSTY
Briefly: Selectivity interaction (Kinase panel (KiNativ target engagement assay in Jurkat cells)) EUB0001635a MAP4K2. It counts as cell-based. To be noted: Selectivity number of off-targets 0.0, Selectivity number of targets 233.0, Source Knowledge https://www.sciencedirect.com/science/article/pii/S2451945619300674?via%3Dihub, at 1 µM.

SMILES strings stand for the structures.

Chain of Cyclin-dependent kinase 9 (P50750 whole entry): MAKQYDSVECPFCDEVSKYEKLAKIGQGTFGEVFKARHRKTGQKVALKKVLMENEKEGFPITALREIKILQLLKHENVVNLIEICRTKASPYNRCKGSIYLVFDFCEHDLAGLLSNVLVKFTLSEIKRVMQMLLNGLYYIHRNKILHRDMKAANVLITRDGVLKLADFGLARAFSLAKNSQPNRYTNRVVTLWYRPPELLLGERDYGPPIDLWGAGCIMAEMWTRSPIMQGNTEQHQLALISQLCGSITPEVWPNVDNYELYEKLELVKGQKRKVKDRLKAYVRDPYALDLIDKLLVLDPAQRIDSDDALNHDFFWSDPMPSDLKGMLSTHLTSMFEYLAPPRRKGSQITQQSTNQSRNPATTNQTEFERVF
Chain of Serine/threonine-protein kinase/endoribonuclease IRE1 (Homo sapiens) (O75460 19-977 limits assumed): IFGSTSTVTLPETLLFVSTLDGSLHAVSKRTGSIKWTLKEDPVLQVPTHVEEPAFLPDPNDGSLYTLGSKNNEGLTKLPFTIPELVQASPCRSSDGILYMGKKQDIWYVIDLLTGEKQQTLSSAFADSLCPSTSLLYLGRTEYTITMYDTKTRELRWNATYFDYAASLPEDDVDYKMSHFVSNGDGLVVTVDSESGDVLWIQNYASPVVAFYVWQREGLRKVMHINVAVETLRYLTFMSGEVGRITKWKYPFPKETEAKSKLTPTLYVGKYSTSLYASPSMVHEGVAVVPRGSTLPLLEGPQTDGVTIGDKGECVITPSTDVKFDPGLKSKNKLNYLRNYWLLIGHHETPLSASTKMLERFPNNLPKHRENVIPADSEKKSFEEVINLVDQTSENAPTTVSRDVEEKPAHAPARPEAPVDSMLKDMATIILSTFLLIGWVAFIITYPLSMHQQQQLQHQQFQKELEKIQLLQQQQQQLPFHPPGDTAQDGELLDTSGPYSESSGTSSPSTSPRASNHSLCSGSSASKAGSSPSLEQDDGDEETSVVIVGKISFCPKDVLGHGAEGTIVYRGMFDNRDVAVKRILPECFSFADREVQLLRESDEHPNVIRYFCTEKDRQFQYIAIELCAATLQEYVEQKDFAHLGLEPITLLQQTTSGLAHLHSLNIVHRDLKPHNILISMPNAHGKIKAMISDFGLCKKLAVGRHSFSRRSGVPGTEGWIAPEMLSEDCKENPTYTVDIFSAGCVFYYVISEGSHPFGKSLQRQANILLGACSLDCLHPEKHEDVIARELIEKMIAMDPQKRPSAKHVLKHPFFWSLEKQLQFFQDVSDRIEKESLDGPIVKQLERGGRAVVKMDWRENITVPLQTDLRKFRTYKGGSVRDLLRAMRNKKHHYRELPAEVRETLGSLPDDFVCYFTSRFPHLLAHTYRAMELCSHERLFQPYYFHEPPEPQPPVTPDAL
Chain of Ribosomal protein S6 kinase alpha-2 (Homo sapiens) (Q15349 whole entry): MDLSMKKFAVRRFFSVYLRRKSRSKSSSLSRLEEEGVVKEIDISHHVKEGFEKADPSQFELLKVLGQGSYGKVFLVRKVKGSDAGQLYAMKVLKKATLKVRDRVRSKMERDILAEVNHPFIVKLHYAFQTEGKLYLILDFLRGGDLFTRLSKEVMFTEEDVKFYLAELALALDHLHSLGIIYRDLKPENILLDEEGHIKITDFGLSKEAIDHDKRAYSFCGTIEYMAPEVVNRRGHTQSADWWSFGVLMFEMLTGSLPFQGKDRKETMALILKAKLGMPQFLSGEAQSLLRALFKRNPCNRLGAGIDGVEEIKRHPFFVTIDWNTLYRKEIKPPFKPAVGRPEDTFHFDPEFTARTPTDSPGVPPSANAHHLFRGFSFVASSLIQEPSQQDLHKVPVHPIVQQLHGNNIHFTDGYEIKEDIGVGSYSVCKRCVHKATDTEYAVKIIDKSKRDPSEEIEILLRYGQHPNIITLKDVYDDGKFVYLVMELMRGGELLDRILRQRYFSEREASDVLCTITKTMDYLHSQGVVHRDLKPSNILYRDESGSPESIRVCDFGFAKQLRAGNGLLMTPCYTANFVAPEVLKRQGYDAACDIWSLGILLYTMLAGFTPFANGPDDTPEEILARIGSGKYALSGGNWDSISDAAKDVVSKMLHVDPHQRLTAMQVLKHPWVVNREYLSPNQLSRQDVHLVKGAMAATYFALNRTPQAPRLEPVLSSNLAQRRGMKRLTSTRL
Chain of Calcium/calmodulin-dependent protein kinase type 1 (Homo sapiens) (Q14012 whole entry, looked up): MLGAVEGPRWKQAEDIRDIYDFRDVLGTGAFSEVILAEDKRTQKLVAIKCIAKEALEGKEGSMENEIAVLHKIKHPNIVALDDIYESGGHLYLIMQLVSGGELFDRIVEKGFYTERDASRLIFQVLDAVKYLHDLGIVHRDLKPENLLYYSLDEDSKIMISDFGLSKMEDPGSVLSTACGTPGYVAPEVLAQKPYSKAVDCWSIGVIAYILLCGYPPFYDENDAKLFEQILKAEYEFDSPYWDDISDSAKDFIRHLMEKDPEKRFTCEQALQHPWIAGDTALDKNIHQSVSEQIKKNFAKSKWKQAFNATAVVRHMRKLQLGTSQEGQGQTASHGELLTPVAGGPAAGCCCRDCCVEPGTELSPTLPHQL

As to `Nc1cnc(N2CCc3cc(S(=O)(=O)Nc4c(F)cc(Cl)cc4F)cc(N4CCCC4=O)c32)nc1` [TP-020n], in experiment [1], the % of control stood at 97%.
The molecule `CN(C)CC#Cc1ccc2[nH]c3c(c2c1)-c1nc(N)ncc1CCC3` gave a % of control in experiment [2] of 53%.
In turn, `CNC(=O)Nc1ccc(-c2nc(N3CC4CCC(C3)O4)c3cnn(C4CCC5(CC4)OCCO5)c3n2)cc1` displayed a % of control in experiment [3] of 93%.
As for `CC[C@@H]1[C@H](F)C(=O)N[C@@H]1COc1nccc2cc(C(N)=O)c(OC)cc12` [ZIMLOVISERTIB], the % of inhibition in experiment [4] (at 0.01 µM) was 16.2%; in experiment [4] (at 0.04 µM), 0.9%; in experiment [4] (at 0.2 µM), 2.5%; in experiment [4] (at 1 µM) it was -1%; in experiment [4] (at 5 µM), 33%.
For the molecule `COCC(=O)NC/C=C/c1ccc2ncnc(Nc3ccc(Oc4ccc(C)nc4)c(C)c3)c2c1` [CP-724714], the % of control in experiment [5] stood at 72%; in experiment [6], 78%.
Consider `C=CC(=O)Nc1ccc(C(=O)Nc2[nH]nc3c2CN(C(=O)N[C@H](CN(C)C)c2ccccc2)C3(C)C)cc1`, for which, in experiment [7], the % of engagement is -14.9%.
